Source: US7442807B2, “N-phenylpyrrole guanidine derivatives as melanocortin receptor ligands” (Action Pharma A/S, priority 2001, dated 2008)

Tests used:
MC3 [1] = biological target: T1, MC3 (Homo sapiens, UniProt P41968); assay: Test 2. Affinity for the MC3-receptors (I125-NDP-αMSH binding); details: I125-NDP-αMSH as ligand; read-out: Affinity for MC-receptors Ki MC3
Protocol: (§1) Test 2. Affinity for the MC3-receptors, the MC4-receptors and the MC5-receptors
(§2) The binding assays were carried out essentially as described by Szardenings et al, J Biol Chem 1997; 272; 27943-27948 and Schiöth et al, FEBS Lett 1997; 410; 223-228 using I125-NDP-αMSH as ligand.

MC4 [2] = biological target: T2, MC4 (Homo sapiens, UniProt P32245); assay: Test 2. Affinity for the MC4-receptors (I125-NDP-αMSH binding); details: I125-NDP-αMSH as ligand; read-out: Affinity for MC-receptors Ki MC4
Protocol: as §1, §2

MC5 [3] = biological target: T3, MC5 (Homo sapiens, UniProt P33032); assay: Test 2. Affinity for the MC5-receptors (I125-NDP-αMSH binding); details: I125-NDP-αMSH as ligand; read-out: Affinity for MC-receptors Ki MC5
Protocol: as §1, §2

MC4 [4] = biological target: T2, MC4; assay: Test 3. cAMP stimulation, MC4; assay type: cell-based; details: response relative to α-MSH
Protocol: (§3) The stimulation of cAMP was carried out essentially as described by Schiöth et al, Br J Pharmacol 1998; 124; 75-82, however, the response is given relative to α-MSH.

MC1-receptor = MC1-receptor (Mus musculus, UniProt Q01727); assay: Test 1. Affinity for the MC1-receptor (I125-NDP-αMSH binding); details: I125-NDP-αMSH as ligand; read-out: Affinity for MC-receptors Ki MC1
Source text: Test 1. Affinity for the MC1-receptor
The binding assay was cared out essentially as described by Lunec et al, Melanoma Res 1992; 2; 5-12 using I^125-NDP-αMSH as ligand.

MC1 = MC1 (Homo sapiens, UniProt Q01726); assay: Test 3. cAMP stimulation, MC1; assay type: cell-based; details: response relative to α-MSH
Protocol: as §3

MC3 [5] = biological target: T1, MC3; assay: Test 3. cAMP stimulation, MC3; assay type: cell-based; details: response relative to α-MSH
Protocol: as §3

MC5 [6] = biological target: T3, MC5; assay: Test 3. cAMP stimulation, MC5; assay type: cell-based; details: response relative to α-MSH
Protocol: as §3

T1 sequence (P41968 whole entry): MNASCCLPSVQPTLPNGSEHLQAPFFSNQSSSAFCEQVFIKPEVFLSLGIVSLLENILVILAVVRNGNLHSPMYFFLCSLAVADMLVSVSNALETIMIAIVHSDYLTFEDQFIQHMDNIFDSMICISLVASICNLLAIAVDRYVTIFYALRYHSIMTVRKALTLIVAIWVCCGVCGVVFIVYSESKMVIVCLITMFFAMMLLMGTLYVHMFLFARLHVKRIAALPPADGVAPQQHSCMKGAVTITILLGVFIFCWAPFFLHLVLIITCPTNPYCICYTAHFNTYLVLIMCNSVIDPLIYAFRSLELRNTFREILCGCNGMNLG
T2 sequence (P32245 whole entry): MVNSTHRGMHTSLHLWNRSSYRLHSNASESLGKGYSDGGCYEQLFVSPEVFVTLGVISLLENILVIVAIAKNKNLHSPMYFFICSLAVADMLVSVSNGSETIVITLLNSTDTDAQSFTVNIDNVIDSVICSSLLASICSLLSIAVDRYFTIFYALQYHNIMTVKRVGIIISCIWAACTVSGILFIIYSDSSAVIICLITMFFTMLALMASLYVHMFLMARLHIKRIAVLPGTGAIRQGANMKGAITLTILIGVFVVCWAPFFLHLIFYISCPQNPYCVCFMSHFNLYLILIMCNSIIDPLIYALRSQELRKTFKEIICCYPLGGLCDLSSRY
T3 sequence (P33032 whole entry): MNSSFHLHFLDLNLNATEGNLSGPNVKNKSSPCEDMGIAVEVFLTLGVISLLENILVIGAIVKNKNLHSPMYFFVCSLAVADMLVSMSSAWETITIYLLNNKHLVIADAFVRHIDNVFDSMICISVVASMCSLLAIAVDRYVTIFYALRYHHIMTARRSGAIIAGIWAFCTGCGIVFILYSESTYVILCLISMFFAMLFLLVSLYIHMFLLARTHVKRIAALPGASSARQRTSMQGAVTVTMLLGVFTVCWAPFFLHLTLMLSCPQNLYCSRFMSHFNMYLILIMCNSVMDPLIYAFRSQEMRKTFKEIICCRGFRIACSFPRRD
MC1, sequence (Q01726 whole entry): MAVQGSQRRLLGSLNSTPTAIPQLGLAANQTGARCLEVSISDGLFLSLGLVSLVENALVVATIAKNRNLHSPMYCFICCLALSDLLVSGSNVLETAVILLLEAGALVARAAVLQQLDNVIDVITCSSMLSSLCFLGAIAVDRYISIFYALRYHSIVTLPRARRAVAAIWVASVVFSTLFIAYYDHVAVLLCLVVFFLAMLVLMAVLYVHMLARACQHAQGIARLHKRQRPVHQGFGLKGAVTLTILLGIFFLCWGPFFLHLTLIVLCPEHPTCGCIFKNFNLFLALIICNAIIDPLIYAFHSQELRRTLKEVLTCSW
MC1-receptor, sequence (Q01727 whole entry): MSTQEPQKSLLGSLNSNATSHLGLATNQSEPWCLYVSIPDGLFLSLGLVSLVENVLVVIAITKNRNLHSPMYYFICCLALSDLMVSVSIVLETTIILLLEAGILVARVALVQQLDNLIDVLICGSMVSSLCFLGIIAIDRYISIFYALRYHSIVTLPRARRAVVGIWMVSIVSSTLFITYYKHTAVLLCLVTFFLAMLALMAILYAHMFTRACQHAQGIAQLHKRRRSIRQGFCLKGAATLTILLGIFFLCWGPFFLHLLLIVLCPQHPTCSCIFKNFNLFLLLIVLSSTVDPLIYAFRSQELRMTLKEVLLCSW

Ki (MC4 [2])	Ki (MC5 [3])	Molecule	Ki (MC3 [1])	Influence on cAMP: cAMP agonist/plateau stim. α-MSH (%) MC4 (MC4 [4])	Ki (MC1-receptor)	Influence on cAMP: cAMP agonist/plateau stim. α-MSH (%) MC1 (MC1)	Influence on cAMP: cAMP agonist/plateau stim. α-MSH (%) MC3 (MC3 [5])	Influence on cAMP: cAMP agonist/plateau stim. α-MSH (%) MC5 (MC5 [6])
3.6 µM	7.52 µM	N=C(N)NN=Cc1cccn1-c1cc(Cl)cc(Cl)c1 [Compound 50, N-[(1-(3,5-dichlorophenyl)-1H-pyrrol-2-yl)methyleneamino]guanidine]	12.8 µM	36%	–	–	–	–
0.07 µM	7.8 µM	N=C(N)NN=Cc1cccn1-c1ccc(C(F)(F)F)cc1 [Compound 48, N-[(1-(4-Trifluoromethylphenyl)-1H-pyrrol-2-yl)methyleneamino]guanidine]	–	–	–	–	–	–

Molecule	Ki (MC4 [2])	Ki (MC5 [3])	Ki (MC3 [1])	Influence on cAMP: cAMP agonist/plateau stim. α-MSH (%) MC4 (MC4 [4])	Ki (MC1-receptor)	Influence on cAMP: cAMP agonist/plateau stim. α-MSH (%) MC1 (MC1)	Influence on cAMP: cAMP agonist/plateau stim. α-MSH (%) MC3 (MC3 [5])	Influence on cAMP: cAMP agonist/plateau stim. α-MSH (%) MC5 (MC5 [6])
N-{1-[(4-Chlorophenyl)-1H-Pyrrol-2-yl]methylene-amino}guanidine [Compound 1]	5.1 µM	17.5 µM	15.6 µM	118%	0.42 µM	30%	35%	6%
